In general, IC50 refers to the point on the concentration scale where inhibition reaches its midpoint.

Structures are written as SMILES. Calls of active or inactive are those of the source. The calls are words filed in the database; no cut-off is given here.

Data set [1] deals with T1, Thioredoxin reductase 1, cytoplasmic (Homo sapiens, UniProt Q16881).
T1 sequence (Q16881 whole entry): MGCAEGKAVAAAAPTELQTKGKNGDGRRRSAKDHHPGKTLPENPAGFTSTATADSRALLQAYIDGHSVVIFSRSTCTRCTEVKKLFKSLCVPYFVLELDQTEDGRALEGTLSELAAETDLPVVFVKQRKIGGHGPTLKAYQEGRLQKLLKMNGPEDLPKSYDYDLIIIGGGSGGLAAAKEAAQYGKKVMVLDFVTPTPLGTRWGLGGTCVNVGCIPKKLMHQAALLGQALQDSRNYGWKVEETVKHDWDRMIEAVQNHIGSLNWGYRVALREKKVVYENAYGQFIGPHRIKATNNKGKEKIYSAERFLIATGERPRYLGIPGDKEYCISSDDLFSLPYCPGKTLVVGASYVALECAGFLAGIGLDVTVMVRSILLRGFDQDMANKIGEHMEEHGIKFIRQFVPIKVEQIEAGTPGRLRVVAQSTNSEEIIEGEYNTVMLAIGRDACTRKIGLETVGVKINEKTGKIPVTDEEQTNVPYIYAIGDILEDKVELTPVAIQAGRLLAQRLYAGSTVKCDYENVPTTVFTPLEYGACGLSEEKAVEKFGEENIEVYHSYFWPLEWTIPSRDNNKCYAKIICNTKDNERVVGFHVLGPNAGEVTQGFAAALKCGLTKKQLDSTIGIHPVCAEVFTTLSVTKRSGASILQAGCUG
Description: Inhibition of TrxR in human SH-SY5Y cells using DTNB as substrate preincubated for 15 mins followed by substrate addition and measured for 20 mins by Ellman's method. It counts as cell-based.

The target in data set [2] is T2, Thioredoxin reductase 1, cytoplasmic (Rattus norvegicus, UniProt O89049).
T2 sequence (O89049 whole entry): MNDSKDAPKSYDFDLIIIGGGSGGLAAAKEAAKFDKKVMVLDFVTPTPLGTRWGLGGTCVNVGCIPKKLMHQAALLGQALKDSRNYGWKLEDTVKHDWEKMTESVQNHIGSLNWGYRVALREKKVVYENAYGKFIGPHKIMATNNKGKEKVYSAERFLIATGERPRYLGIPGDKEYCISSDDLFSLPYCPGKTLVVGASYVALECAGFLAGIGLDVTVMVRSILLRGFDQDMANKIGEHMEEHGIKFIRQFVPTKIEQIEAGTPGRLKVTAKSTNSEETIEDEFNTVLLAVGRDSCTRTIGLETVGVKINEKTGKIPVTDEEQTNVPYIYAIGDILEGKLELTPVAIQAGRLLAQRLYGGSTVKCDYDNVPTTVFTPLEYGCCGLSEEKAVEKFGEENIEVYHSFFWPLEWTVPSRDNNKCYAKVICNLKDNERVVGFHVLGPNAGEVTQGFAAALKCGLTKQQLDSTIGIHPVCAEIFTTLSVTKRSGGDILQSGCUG
Description: Inhibition of rat TrxR1 using DTNB as substrate preincubated for 15 mins followed by substrate addition and measured for 20 mins by Ellman's method. On the technique in general: In Ellman's method for cholinesterases, released thiocholine reacts with DTNB.

Data set [3] deals with T1, Thioredoxin reductase 1, cytoplasmic. Nature of the data set: Inhibition of TrxR1 (unknown origin) using DTNB as substrate preincubated for 30 mins in presence of insulin followed by substrate addition by colorimetry.
Data set [4] addresses T3, Thioredoxin reductase 1, cytoplasmic (Rattus norvegicus) (UniProt O89049).
T3 sequence (whole entry): T2 sequence (O89049 whole entry)
Nature of the data set: […] inhibition of rat TrxR1 using DTNB as substrate preincubated for 15 mins in presence of NADPH followed by substrate addition and measured for 20 mins by Ellman's method.

For data set [5], the system named is SH-SY5Y. Nature of the data set: Cytotoxicity against human SH-SY5Y cells assessed as reduction in cell viability incubated for 72 hrs by MTT assay. The data set is classed as functional, cell-based.
The test system of data set [6] is U-87 MG. Nature of the data set: Cytotoxicity against human U87 cells assessed as reduction in cell viability incubated for 72 hrs by MTT assay. It counts as functional, cell-based, U-87MG ATCC. A general note: Tetrazolium assays rely on reduction of a dye to a coloured formazan, in cell work by metabolically active cells.
Data set [7] deals with PBMC. Nature of the data set: Cytotoxicity against human PBMC assessed as reduction in cell viability incubated for 72 hrs by MTT assay. It counts as cell-based.
In data set [8] the test system is HaCaT. Description: Cytotoxicity against human HaCaT assessed as reduction in cell viability incubated for 72 hrs by MTT assay. The data set is classed as cell-based.
In data set [9] the test system is SH-SY5Y. Description: Induction of ROS generation in human SH-SY5Y cells incubated for 24 hrs by DHE staining based flow cytometry. The data set is classed as functional, cell-based. (In flow cytometry, cells or beads pass a laser one at a time.)
The subject of data set [10] is U-87 MG. Nature of the data set: Induction of ROS generation in human U87 cells incubated for 24 hrs by DHE staining based flow cytometry. It counts as functional, cell-based. The conditions noted are these: U-87MG ATCC.
For data set [11], the system named is HaCaT. Nature of the data set: Induction of ROS generation in human HaCaT cells incubated for 24 hrs by DHE staining based flow cytometry. The data set is classed as cell-based.
For data set [12], the system named is SH-SY5Y. Description: Induction of RNS generation in human SH-SY5Y cells incubated for 24 hrs by DHR staining based flow cytometry. The data set is classed as functional.
In data set [13] the test system is U-87 MG. Description: Induction of RNS generation in human U87 cells incubated for 24 hrs by DHR staining based flow cytometry. The following applies: U-87MG ATCC. The data set is classed as functional, cell-based.
Data set [14] relates to HaCaT. Nature of the data set: Induction of RNS generation in human HaCaT cells incubated for 24 hrs by DHR staining based flow cytometry. The data set is classed as cell-based.
Data set [15] deals with SH-SY5Y. Description: Induction of apoptosis in human SH-SY5Y cells assessed as viable cells incubated for 48 hrs by annexin V FITC and propidium iodide staining based flow cytometry (reference value: 92.44 %). It counts as functional.
For data set [16], the system named is SH-SY5Y. Description: Induction of apoptosis in human SH-SY5Y cells assessed as early apoptotic cells incubated for 48 hrs by annexin V FITC and propidium iodide staining based flow cytometry (reference value: 0.44 %). The data set is classed as functional.
The test system of data set [17] is SH-SY5Y. Description: Induction of apoptosis in human SH-SY5Y cells assessed as late apoptotic cells incubated for 48 hrs by annexin V FITC and propidium iodide staining based flow cytometry (reference value: 1.37 %). The data set is classed as functional.
In data set [18] the test system is SH-SY5Y. Description: Induction of apoptosis in human SH-SY5Y cells assessed as necrotic cells incubated for 48 hrs by annexin V FITC and propidium iodide staining based flow cytometry (reference value: 5.75 %). It counts as functional.
A short description of data set [19]: Induction of apoptosis in human HaCaT cells assessed as viable cells incubated for 48 hrs by annexin V FITC and propidium iodide staining based flow cytometry (reference value: 95.78 %). It counts as cell-based. The following applies: read-out: Activity.
Data set [20] deals with HaCaT. Description: Induction of apoptosis in human HaCaT cells assessed as early apoptotic cells incubated for 48 hrs by annexin V FITC and propidium iodide staining based flow cytometry (reference value: 0.02 %). It counts as cell-based.
Data set [21] relates to HaCaT. Nature of the data set: Induction of apoptosis in human HaCaT cells assessed as late apoptotic cells incubated for 48 hrs by annexin V FITC and propidium iodide staining based flow cytometry (reference value: 0.46 %). The data set is classed as cell-based.
For data set [22], the system named is HaCaT. Description: Induction of apoptosis in human HaCaT cells assessed as necrotic cells incubated for 48 hrs by annexin V FITC and propidium iodide staining based flow cytometry (reference value: 2.74 %). The data set is classed as cell-based.

On to `COc1ccc(C(C(=O)NC(C)(C)C)N(C(=O)/C=C/C(=O)c2ccc(C)cc2)C(C)C)cc1` (configuration not stated), for which the IC50 in data set [1] was found to be 16000 nM; in data set [2], 1740 nM; in data set [3], 760 nM; in [5], 900 nM; in [6] it was 460 nM; in data set [7], 2100 nM. For the same molecule, in [8], the IC50 stood at 830 nM. Moreover, in data set [4], the inhibition entry is “Active”. Moreover, the result in data set [9], in data set [10] and in data set [13] was inactive. The Activity result was “Non-Toxic” in data set [11]; “>=30%” in [12]; “Non-Toxic” in data set [14]; 71.35% in data set [15]; 0.71% in [16]; 2.14% in data set [17]. Moreover, the Activity in data set [18] is reported as 25.8%; in [20], 0.22%; in data set [21] it was 2.92%; in [22] it was 18.16%. Further, the viability at 48 h in data set [19] is 78.8%.
